Laboratory results published in patent publication US6211244A, “Calcium receptor-active compounds” (priority 1995, dated 2001).

Target: T1, human calcium receptor (Homo sapiens, UniProt P41180, R990G)
T1 construct: expressed in transfected cells; host or cells: HEK 293
T1 sequence (P41180 20-1078 R990G): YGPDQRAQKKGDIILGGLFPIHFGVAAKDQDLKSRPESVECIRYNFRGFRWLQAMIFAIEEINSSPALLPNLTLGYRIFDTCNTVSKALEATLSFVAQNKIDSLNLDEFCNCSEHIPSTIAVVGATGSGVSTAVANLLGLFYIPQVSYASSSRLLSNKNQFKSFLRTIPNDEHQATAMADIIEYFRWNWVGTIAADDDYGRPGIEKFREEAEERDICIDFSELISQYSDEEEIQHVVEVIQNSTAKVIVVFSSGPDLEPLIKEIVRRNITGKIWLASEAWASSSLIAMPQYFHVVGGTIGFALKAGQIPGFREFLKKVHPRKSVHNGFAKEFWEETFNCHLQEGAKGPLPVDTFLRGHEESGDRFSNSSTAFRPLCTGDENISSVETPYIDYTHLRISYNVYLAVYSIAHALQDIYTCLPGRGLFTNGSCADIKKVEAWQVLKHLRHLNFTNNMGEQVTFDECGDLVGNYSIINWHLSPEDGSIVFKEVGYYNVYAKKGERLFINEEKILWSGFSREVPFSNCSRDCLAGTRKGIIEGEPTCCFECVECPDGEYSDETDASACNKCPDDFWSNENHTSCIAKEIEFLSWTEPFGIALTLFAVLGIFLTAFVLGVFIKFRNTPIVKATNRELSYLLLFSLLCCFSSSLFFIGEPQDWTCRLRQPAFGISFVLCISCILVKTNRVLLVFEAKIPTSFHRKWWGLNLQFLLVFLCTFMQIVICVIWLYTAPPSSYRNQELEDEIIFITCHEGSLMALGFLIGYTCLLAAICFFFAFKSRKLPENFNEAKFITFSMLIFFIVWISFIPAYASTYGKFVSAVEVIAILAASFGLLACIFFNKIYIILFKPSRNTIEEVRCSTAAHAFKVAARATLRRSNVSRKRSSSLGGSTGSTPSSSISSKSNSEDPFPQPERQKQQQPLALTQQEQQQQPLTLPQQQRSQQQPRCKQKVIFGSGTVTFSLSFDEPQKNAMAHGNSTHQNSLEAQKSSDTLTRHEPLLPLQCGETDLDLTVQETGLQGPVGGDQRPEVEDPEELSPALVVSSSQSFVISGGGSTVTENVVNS
Assay: increases in [Ca^2+ ]i in HEK-293 cells expressing the human calcium receptor (fura-2 loaded HEK 293/pHuPCaR4.0 cells), % activity
Type: cell-based

C[C@@H](NCc1ccc2c(c1)OCO2)c1cccc2ccccc12 [Compound 16R]
% activity (33 ng/mL): 76% | % activity (330 ng/mL): 100%

COc1cc(C)c(CN[C@H](C)c2cccc3ccccc23)cc1C [Compound 16U]
% activity (33 ng/mL): 50% | % activity (330 ng/mL): 85%

CCOc1ccc(CN[C@H](C)c2cccc3ccccc23)cc1 [Compound 16W]
% activity (33 ng/mL): 73% | % activity (330 ng/mL): 102%

C[C@@H](NCc1ccc(C#N)cc1)c1cccc2ccccc12 [Compound 16Z]
% activity (33 ng/mL): 51% | % activity (330 ng/mL): 88%

CC(=O)c1ccc(CN[C@H](C)c2cccc3ccccc23)cc1 [Compound 17C]
% activity (33 ng/mL): 99% | % activity (330 ng/mL): 120% | % activity (3300 ng/mL): 113%

C[C@@H](NCc1ccc(Br)cc1)c1cccc2ccccc12 [Compound 17D]
% activity (33 ng/mL): 91% | % activity (330 ng/mL): 108%

C[C@@H](NCc1ccc(I)cc1)c1cccc2ccccc12 [Compound 17E]
% activity (33 ng/mL): 110% | % activity (330 ng/mL): 110% | % activity (3300 ng/mL): 116%

C[C@@H](NCc1ccc(C(F)(F)F)cc1)c1cccc2ccccc12 [Compound 17F]
% activity (33 ng/mL): 90% | % activity (330 ng/mL): 111%

COc1ccc(C(N[C@H](C)c2cccc3ccccc23)C2CC2)cc1 (stereo partly drawn) [Compound 17H]
% activity (33 ng/mL): 111% | % activity (330 ng/mL): 124% | % activity (3300 ng/mL): 126%

CC(NC(C)c1cccc2ccccc12)c1ccc(Cl)c(Cl)c1 (stereo not drawn) [Compound 17J]
% activity (33 ng/mL): 122% | % activity (330 ng/mL): 118% | % activity (3300 ng/mL): 116%

CC(NC(C)c1cccc2ccccc12)c1ccc(Cl)c(Cl)c1 (stereo not drawn) [Compound 17K]
% activity (33 ng/mL): 73% | % activity (330 ng/mL): 97% | % activity (3300 ng/mL): 98%

COc1ccc(CN[C@H](C)c2cccc3ccccc23)c(C)c1C [Compound 17L]
% activity (33 ng/mL): 78% | % activity (330 ng/mL): 104% | % activity (3300 ng/mL): 111%

COc1ccc(CN[C@H](C)c2cccc3ccccc23)cc1Cl.Cl [Compound 17M, N-(3-chloro-4-methoxybenzyl)-(R)-1-(1-naphthyl) ethylamine hydrochloride]
% activity (33 ng/mL): 99% | % activity (330 ng/mL): 115%

Cc1ccc([C@@H](C)N[C@H](C)c2cccc3ccccc23)cc1C [Compound 17N]
% activity (33 ng/mL): 86% | % activity (330 ng/mL): 108%

COc1cccc([C@@H](C)NCCCc2ccccc2I)c1 [Compound 17R]
% activity (33 ng/mL): 65% | % activity (330 ng/mL): 98%

COc1ccc(CNCc2ccccc2OC)cc1C [Compound 17V]
% activity (33 ng/mL): 27% | % activity (330 ng/mL): 66% | % activity (3300 ng/mL): 91%

Cc1cc(C(C)NC(C)c2cccc3ccccc23)ccc1O (stereo not drawn) [Compound 17W]
% activity (33 ng/mL): 67% | % activity (330 ng/mL): 92%

COc1ccc(CNCc2cccc3ccccc23)cc1C [Compound 17Y]
% activity (33 ng/mL): 79% | % activity (330 ng/mL): 94% | % activity (3300 ng/mL): 109%

COc1ccc(CNC(C)c2cccc3ccccc23)cc1C (stereo not drawn) [Compound 17Z]
% activity (33 ng/mL): 73% | % activity (330 ng/mL): 99%

COc1ccc(CNC(C)c2ccc(F)c3ccccc23)cc1C (stereo not drawn) [Compound 18A]
% activity (33 ng/mL): 88% | % activity (330 ng/mL): 111%

COc1ccc(CNC(C)c2c(OC)ccc3ccccc23)cc1C (stereo not drawn) [Compound 18B]
% activity (33 ng/mL): 69% | % activity (330 ng/mL): 96% | % activity (3300 ng/mL): 111%
